A short description of data set [1]: Tmax in human with MDR1 3435 CC or CT genotype at 400 mg, po once daily after 14 days coadministered with rifampin at 600 […], po once daily. Type of data set: ADME, organism-based. The settings on record: in vivo. Set-up: route oral.
Data set [2] in a line: Tmax in human at 400 mg, po once daily after 14 days coadministered with rifampin at 600 mg, po once daily. The data set is classed as ADME, organism-based. The settings on record: in vivo.
The nature of data set [3]: AUC (0 to 24 hrs) in human with MDR1 3435 CT or TT genotype at 400 mg, po once daily after 14 days coadministered with rifampin at 600 mg, po once daily. The settings on record: plasma.
A short description of data set [4]: AUC (0 to 24 hrs) in human at 400 mg, po once daily after 4 days. The data set is classed as ADME, organism-based. Set-up: dose 400 mg, time < 24 hr, route oral. The settings on record: plasma.
Data set [5] is described as follows: Plasma concentration in human with MDR1 3435 CC genotype at 400 mg, po once daily after 4 days. Type of data set: ADME, organism-based.
The nature of data set [6]: AUC (0 to 24 hrs) in human with MDR1 3435 CC or CT genotype at 400 mg, po once daily after 4 days. Set-up: dose 400 mg, time < 24 hr, route oral. The settings on record: plasma. The data set is classed as ADME, organism-based.
Data set [7] in a line: Plasma concentration in human at 400 mg, po once daily after 4 days. Type of data set: ADME, organism-based.
The nature of data set [8]: Plasma concentration in human with MDR1 3435 CC genotype at 400 mg, po once daily after 14 days coadministered with rifampin at 600 […], po once daily. Also noted: route oral. Type of data set: ADME, organism-based.
Data set [9] in a line: AUC (0 to 24 hrs) in human with MDR1 3435 CC genotype at 400 mg, po once daily after 4 days. The data set is classed as ADME, organism-based. Set-up: dose 400 mg, time < 24 hr, route oral. The settings on record: plasma.
Data set [10] is described as follows: Plasma concentration in human with MDR1 3435 CC or CT genotype at 400 mg, po once daily after 4 days. The data set is classed as ADME, organism-based.
Data set [11] is described as follows: AUC (0 to 24 hrs) in human at 400 mg, po once daily after 14 days coadministered with rifampin at 600 mg, po once daily. The data set is classed as ADME, organism-based. The settings on record: plasma. Set-up: dose 400 mg, time < 24 hr, route oral.
Data set [12] in a line: Plasma concentration in human with MDR1 3435 CC or CT genotype at 400 mg, po once daily after 14 days coadministered with rifampin at 600 […], po once daily. Set-up: route oral. Type of data set: ADME, organism-based.
Data set [13] is described as follows: Tmax in human with MDR1 3435 CC genotype at 400 mg, po once daily after 4 days. Type of data set: ADME, organism-based. The settings on record: in vivo.
Data set [14] can be described thus: Tmax in human with MDR1 3435 CC or CT genotype at 400 mg, po once daily after 4 days. Type of data set: ADME, organism-based. The settings on record: in vivo.
Data set [15] can be described thus: Tmax in human at 400 mg, po once daily after 4 days. The data set is classed as ADME, organism-based. The settings on record: in vivo.
A short description of data set [16]: Plasma concentration in human at 400 mg, po once daily after 14 days coadministered with rifampin at 600 mg, po once daily. The data set is classed as ADME, organism-based.
Data set [17] in a line: AUC (0 to 24 hrs) in human with MDR1 3435 CC genotype at 400 mg, po once daily after 14 days coadministered with rifampin at 600 […], po once daily. Type of data set: ADME, organism-based. Also noted: time < 24 hr, route oral. The settings on record: plasma.
Data set [18] is described as follows: Tmax in human with MDR1 3435 CC genotype at 400 mg, po once daily after 14 days coadministered with rifampin at 600 […], po once daily. Also noted: route oral. The settings on record: in vivo. Type of data set: ADME, organism-based.
Data set [19] can be described thus: AUC (0 to 24 hrs) in human at 600 mg, po once daily after 14 days coadministered with moxifloxacin at 400 mg, po once daily. Type of data set: ADME, organism-based. Set-up: dose 600 mg, time < 24 hr, route oral. The settings on record: plasma.
Data set [20] can be described thus: Plasma concentration in human at 600 mg, po once daily after 14 days coadministered with moxifloxacin at 400 mg, po once daily. The data set is classed as ADME, organism-based.

SMILES strings stand for the structures.

By Tmax is commonly meant the time at which the peak concentration occurs. Broadly, the AUC is the area under the concentration-time curve, a measure of exposure. In the case of `COc1c(N2C[C@@H]3CCCN[C@@H]3C2)c(F)cc2c(=O)c(C(=O)O)cn(C3CC3)c12` [MOXIFLOXACIN], the Tmax in data set [1] is 1.05 h; in data set [2], 1.56 h; in [13], 1.47 h; in [14], 1.91 h; in [15], 1.97 h; in data set [18], 1.98 h. The AUC at 24 h in data set [3] is 30300 ng·h/mL; in data set [4] it was 39400 ng·h/mL; in [6], 39700 ng·h/mL; in data set [9], 37200 ng·h/mL; in data set [11], 29200 ng·h/mL; in data set [17] it was 25500 ng·h/mL. The concentration at 96 h is 3530 ng/mL in [5], 3800 ng/mL in data set [7] and 3810 ng/mL in data set [10]. The concentration at 336 h in data set [8] was determined as 2940 ng/mL; in data set [12] it was 3830 ng/mL; in data set [16], 3600 ng/mL.

Regarding `CO[C@H]1/C=C/O[C@@]2(C)Oc3c(C)c(O)c4c(O)c(c(/C=N/N5CCN(C)CC5)c(O)c4c3C2=O)NC(=O)/C(C)=C\C=C\[C@H](C)[C@H](O)[C@@H](C)[C@@H](O)[C@@H](C)[C@H](OC(C)=O)[C@@H]1C` [RIFAMPIN], in [19], the exposure (AUC) at 24 h stood at 44000 ng·h/mL. The concentration at 336 h in data set [20] was 9900 ng/mL.

Values taken from ChEMBL document CHEMBL1155148 (Antimicrob Agents Chemother, 2007).
